Literature values, collected in article PMC8405607 (British Journal of Cancer, 2021).

Experiments:
[1] = parameters: method as in PMID 24309210, PMID 23084521, PMID 28240971; details: liposarcoma trial; cited from earlier work
p53 = test system: p53; parameters: method as in PMID 21643018; details: prolonged exposure; cited from earlier work

SMILES | patients experiencing grade 4 neutropenia [1] [%] | patients experiencing prolonged grade 4 thrombocytopenia [1] [%] | p53 mutations (p53)
CCOc1cc(C(C)(C)C)ccc1C1=N[C@@](C)(c2ccc(Cl)cc2)[C@@](C)(c2ccc(Cl)cc2)N1C(=O)N1CCN(CCCS(C)(=O)=O)CC1 [RG7112] | 30 | 15 | –
COc1ccc(C2=N[C@@H](c3ccc(Cl)cc3)[C@@H](c3ccc(Cl)cc3)N2C(=O)N2CCNC(=O)C2)c(OC(C)C)c1 [Nutlin-3a] | – | – | increased incidence of p53 mutations
